Calls of active or inactive are those of the source. No cut-off for these calls is given here.
Key:
Plasma kallikrein = Plasma kallikrein (Homo sapiens, UniProt P03952); assay: Inhibition of plasma kallikrein (unknown origin) assessed as chromogenic substrate hydrolysis using CS-31(02) as substrate incubated for 1 hr by spectrophotometer based microplate reader method
[1] = biological target: T1, Coagulation factor XII (Homo sapiens) (UniProt P00748); assay: Inhibition of coagulation factor XIIa (unknown origin) assessed as chromogenic substrate using TH5253 as substrate at 1 mM incubated for 1 hr by spectrophotometer based microplate reader method
T1 sequence (whole entry): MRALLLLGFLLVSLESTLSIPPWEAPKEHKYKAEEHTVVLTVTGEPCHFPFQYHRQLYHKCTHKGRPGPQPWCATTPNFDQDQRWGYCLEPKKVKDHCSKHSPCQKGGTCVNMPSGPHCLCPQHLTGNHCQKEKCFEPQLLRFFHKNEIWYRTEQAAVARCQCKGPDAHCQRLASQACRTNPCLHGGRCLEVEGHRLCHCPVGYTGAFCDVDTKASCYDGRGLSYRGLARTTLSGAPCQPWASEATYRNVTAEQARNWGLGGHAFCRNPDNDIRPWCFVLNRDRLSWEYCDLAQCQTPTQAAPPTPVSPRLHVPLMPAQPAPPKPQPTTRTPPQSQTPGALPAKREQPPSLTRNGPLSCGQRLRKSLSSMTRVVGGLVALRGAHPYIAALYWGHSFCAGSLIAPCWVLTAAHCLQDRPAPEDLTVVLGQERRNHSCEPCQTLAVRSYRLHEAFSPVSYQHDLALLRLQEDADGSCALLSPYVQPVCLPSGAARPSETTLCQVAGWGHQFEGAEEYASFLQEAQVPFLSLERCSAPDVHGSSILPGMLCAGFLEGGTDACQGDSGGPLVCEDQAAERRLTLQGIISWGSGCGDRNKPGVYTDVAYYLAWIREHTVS

Homo sapiens [2] = species on record: Homo sapiens; assay: Selectivity index, ratio of IC50 for coagulation factor VIIa (unknown origin) to IC50 for coagulation factor XIa (unknown origin)
Homo sapiens [3] = species on record: Homo sapiens; assay: Selectivity index, ratio of IC50 for trypsin (unknown origin) to IC50 for coagulation factor XIa (unknown origin)
[4] = Cmax in Sprague-Dawley rat at 10 mg/kg, iv after 0.083 to 24 hrs by LC-MS/MS analysis; type: ADME, organism-based; set-up: route intravenous, dose 10 mg/kg, time upper 24 hrs, time lower 0.083 hrs; settings: in vivo
[5] = Apparent volume of distribution in Sprague-Dawley rat at 10 mg/kg, iv after 0.083 to 24 hrs by LC-MS/MS analysis; type: ADME, organism-based; settings: in vivo, time 0.083-24 hrs, read-out: Vz
[6] = Acute toxicity in ICR mouse assessed as histological change in spleen at 50 to 100 mg/kg, iv as single dose for 14 days by H and E staining method; type: organism-based; settings: in vivo, 336 h, dose 50-100 mg/kg, time 14 day
Coagulation factor XI = Coagulation factor XI (Homo sapiens, UniProt P03951); settings: dose 50.0 nM, time 1.0 hrs
Sequence of Coagulation factor XI (P03951 19-387 limits assumed): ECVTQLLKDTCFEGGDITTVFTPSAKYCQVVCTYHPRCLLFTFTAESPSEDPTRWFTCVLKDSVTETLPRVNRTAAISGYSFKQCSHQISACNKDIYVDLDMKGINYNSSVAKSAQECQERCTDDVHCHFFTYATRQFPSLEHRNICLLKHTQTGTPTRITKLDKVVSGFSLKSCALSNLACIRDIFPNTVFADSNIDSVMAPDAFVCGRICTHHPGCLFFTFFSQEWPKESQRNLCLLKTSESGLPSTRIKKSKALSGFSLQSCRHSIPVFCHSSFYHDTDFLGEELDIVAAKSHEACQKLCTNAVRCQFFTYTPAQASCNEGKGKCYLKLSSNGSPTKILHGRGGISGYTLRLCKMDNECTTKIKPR
Sequence of Coagulation factor XI (P03951 388-625 limits assumed): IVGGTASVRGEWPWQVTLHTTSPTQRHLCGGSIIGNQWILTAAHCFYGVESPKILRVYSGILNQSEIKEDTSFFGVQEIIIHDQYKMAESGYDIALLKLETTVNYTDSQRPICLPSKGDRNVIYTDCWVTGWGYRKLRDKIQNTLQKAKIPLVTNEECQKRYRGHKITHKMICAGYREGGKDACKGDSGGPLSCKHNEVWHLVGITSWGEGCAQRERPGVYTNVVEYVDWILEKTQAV

Sequence of Plasma kallikrein (P03952 20-390 limits assumed): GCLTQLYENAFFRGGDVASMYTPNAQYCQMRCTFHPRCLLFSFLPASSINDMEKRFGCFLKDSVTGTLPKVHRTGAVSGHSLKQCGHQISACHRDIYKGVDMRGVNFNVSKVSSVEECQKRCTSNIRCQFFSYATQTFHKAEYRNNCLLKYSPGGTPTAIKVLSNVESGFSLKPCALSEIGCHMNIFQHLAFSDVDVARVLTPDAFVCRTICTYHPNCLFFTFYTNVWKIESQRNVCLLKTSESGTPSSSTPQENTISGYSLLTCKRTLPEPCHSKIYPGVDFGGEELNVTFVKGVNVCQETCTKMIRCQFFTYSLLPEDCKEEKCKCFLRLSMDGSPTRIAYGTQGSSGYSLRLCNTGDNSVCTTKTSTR
Sequence of Plasma kallikrein (P03952 391-638 limits assumed): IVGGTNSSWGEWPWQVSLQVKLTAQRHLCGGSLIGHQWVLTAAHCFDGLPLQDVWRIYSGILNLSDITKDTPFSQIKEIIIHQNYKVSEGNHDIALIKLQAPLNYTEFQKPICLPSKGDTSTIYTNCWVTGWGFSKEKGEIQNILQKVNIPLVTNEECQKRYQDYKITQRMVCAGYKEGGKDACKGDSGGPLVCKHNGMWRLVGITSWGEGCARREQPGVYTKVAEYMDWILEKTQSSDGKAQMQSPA

O=C(/C=C/c1cc(Cl)ccc1-n1cnnn1)N[C@@H](CC(=O)N1CCN(c2ccccc2)CC1)C(=O)Nc1ccc(C(=O)O)cc1
IC50 (Plasma kallikrein): 27.9 µM | inhibition [1]: inactive | Ratio IC50 (Homo sapiens [2]): > 5000 | Ratio IC50 (Homo sapiens [3]): > 5000 | Cmax [4]: 57 µg/mL | Vd [5]: 0.969 L/kg | Activity [6]: Non-Toxic | inhibition (Coagulation factor XI): 59.4%

Source: ChEMBL document CHEMBL5046289, “Targeting the S2 Subsite Enables the Structure-Based Discovery of Novel Highly Selective Factor XIa Inhibitors” (J Med Chem, 2022)
